Test results taken from patent US12440571B2, “Immune agonists” (SHENZHEN UNIVERSITY, priority 2020, dated 2025).

Assays:
[1] = molecular target: T1, TLR7 (Homo sapiens, UniProt Q9NYK1); test: Detection of TLR7 activation (HEK-Blue Detection), SEAP reporter; format: cell-based; settings: HEK-Blue hTLR7 cells, 6-16 hrs, absorbance 650 nm; read-out: TLR7(EC50/μM)
T1 construct: host or cells: HEK-Blue hTLR7 cells (HEK293-derived SEAP reporter line)
T1 sequence (Q9NYK1 27-1049): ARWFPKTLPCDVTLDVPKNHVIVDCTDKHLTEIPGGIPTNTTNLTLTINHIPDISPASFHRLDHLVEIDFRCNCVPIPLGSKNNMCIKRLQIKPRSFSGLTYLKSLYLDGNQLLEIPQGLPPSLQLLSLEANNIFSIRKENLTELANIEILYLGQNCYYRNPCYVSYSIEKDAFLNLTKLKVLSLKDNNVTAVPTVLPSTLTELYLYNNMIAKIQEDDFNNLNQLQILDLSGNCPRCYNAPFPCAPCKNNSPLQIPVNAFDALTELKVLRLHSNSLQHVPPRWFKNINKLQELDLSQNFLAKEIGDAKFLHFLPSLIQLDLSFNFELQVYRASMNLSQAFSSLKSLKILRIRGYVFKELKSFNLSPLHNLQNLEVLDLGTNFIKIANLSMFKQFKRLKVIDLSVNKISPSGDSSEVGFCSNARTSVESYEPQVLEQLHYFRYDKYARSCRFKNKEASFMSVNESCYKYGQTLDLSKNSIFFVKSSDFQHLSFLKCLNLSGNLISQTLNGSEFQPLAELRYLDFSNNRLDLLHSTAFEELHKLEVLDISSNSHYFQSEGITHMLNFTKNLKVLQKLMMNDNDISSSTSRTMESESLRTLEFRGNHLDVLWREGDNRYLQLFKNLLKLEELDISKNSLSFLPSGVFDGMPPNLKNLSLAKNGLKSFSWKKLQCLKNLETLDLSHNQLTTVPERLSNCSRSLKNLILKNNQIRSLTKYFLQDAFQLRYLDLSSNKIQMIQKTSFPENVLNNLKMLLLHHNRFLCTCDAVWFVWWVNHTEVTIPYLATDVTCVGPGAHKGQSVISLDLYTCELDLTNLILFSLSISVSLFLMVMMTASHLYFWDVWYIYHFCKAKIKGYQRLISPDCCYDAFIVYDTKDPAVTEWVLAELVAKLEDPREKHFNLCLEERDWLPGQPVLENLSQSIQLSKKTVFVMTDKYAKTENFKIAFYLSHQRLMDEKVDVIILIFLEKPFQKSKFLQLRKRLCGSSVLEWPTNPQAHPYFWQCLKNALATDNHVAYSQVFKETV
Procedure: HEK-Blue™hTLR7 cells (purchased from InvivoGen) in a logarithmic growth phase were taken, with a growth medium (Gibco, C11995500BT, Invivo Gen, ant-nr) discarded. The cells were gently rinsed twice by an appropriate amount of 37° C. PBS (Hyclone, SH30256.01), a rinsed PBS was discarded. Thereafter, the cells were added with 2-5 mL of 37° C. PBS, incubated for 1 to 2 minutes, and then scraped by a cell scraper and gently pipetted to be dispersed into a single cell suspension. A hemocytometer was adopted to count the cells and a cell concentration was calculated. After that, a HEK-Blue™ Detection solution (purchased from Invivo Gen) was adopted to adjust the cell concentration of the cell suspension to 2.5×10^4/180 μL per well for cell plating on a 96-well cell culture plate. The HEK-Blue™hTLR7 cells were stimulated according to the designed series of GY compound or drug concentrations (0.01 μM, 0.1 μM, 1 μM, 5 μM, 15 μM, and 30 μM), with 3 replicate wells for each concentration, and were incubated at 37° C., 5% carbon dioxide for 6-16 hrs. After the incubation, the absorbance value was read at 650 nm with a full-wavelength microplate reader (BioTek-Epoch), as listed in Table 2.
Relative induction=(average OD value of experimental group−average OD value of negative control group)/average OD value of negative control group.
Specific details for the above method may be referred to https: • //www.invivogen.com/hek-blue-htlr7; https://www.invivogen.com/sites/default/files/invivogen/products/files/hek_blue_htlr7_tds.pdf.

[2] = tested on: Murine breast cancer 4T1 cells; test: CCK8 growth inhibition, 4T1; format: cell-based; settings: Mus musculus, CCK8 method, 24 hrs (or 36, 72 hrs), read-out: IC50 of inhibitory activity on tumor cell growth, 4T1
Procedure: Murine breast cancer 4T1 cells (Kailian Biotech, KG338) in a logarithmic growth phase were selected and washed with PBS, digested with 0.25% trypsin (including EDTA), stopped digestion with a DMEM complete medium, then centrifuged, and resuspended to form a suspension of 4T1 single cells. Cells were counted using a hemocytometer and a cell concentration was calculated. A DMEM complete medium was used to adjust the cell suspension to a target concentration, and thereafter, the cells were plated on a 96-well cell culture plate according to 4×10^3/100 μL per well. After adherering to the wall, the 4T1 cells were stimulated according to the designed concentration gradients of the series of GY compounds or drugs, with each concentration being provided with 3 replicate holes. The 96-well cell culture plate with 4T1 cells seeded and dosing was placed in the cell incubator, and incubated at 37° C., 5% carbon dioxide for 24 hrs (or 36, 72 hrs). After the incubation time was over, 10 μL of CCK8 reagent was added to each well and incubated for 1-2 hrs at 37° C. A full-wavelength microplate reader was adopted to test an OD value at 450 nm wavelength.
CCK8 calculation formula is as follows: • Cell survival rate (100%)=[…]/(Ac−Ab)×100% • As: Absorbance of wells containing cells, CCK8 solution, and drug solution • Ac: Absorbance of wells containing cells and CCK8 solution, and no drug solution • Ab: Absorbance of wells containing CCK8 solution, no cells, and no drug solution
Cell growth inhibition rate (%)=1−((OD value of experimental group−OD value of blank group)/(OD value of control group−OD value of blank group)×100%).

SMILES	EC50 [1] [µM]	IC50 [2] [nM]
CCCCOc1nc(N)c2nc(O)n(Cc3cn(CCOCCOCCOCCNC(=S)N4CCCC(n5nc(-c6ccc(Oc7ccccc7)cc6)c6c(N)ncnc65)C4)nn3)c2n1 (stereo not drawn) [GY112]	2.65	1450
CCCCOc1nc(N)c2nc(O)n(Cc3cn(CCOCCOCCOCCNC(=S)Nc4cc(Nc5nccc(-c6cn(C)c7ccccc67)n5)c(OC)cc4N(C)CCN(C)C)nn3)c2n1 [GY127]	1.06	17300
CCCCOc1nc(N)c2nc(O)n(Cc3cn(CCCCN4CCN(CCCNC(=S)N5CCCC(n6nc(-c7ccc(Oc8ccccc8)cc7)c7c(N)ncnc76)C5)CC4)nn3)c2n1 (stereo not drawn) [GY161]	3.86	780
